Results as given in ChEMBL document CHEMBL5244218, “Quinolone derivatives and their activities against methicillin-resistant Staphylococcus aureus (MRSA)” (Eur J Med Chem, 2018).
≈ marks a conversion by molar mass, not a printed value.

The compounds below were run on Staphylococcus aureus (assay: Antimicrobial activity against methicillin-resistant Staphylococcus aureus).
Format: functional, organism-based

SMILES	MIC [µg/mL]	IC50 [µM]
CCO/N=C1\CCN(c2c(F)cc3c(=O)c(C(=O)O)cn(C4CC4)c3c2F)CC1(C)CN (configuration not stated)	8 (≈ 17.8 µM)	
C[C@H]1COc2c(N3CCN(C)CC3)c(F)cc3c(=O)c(C(=O)O)cn1c23.C[C@H]1COc2c(N3CCN(C)CC3)c(F)cc3c(=O)c(C(=O)O)cn1c23.O [LEVOFLOXACIN]	16	
CCO/N=C1\CCN(c2nc3c(cc2F)c(=O)c(C(=O)O)cn3C2CC2)CC1(C)CN (configuration not stated)	8 (≈ 18.5 µM)	
COc1c2c(cc(F)c1N1C[C@H]3CCCN(C[C@@H](O)Cn4cc([N+](=O)[O-])nc4C)[C@H]3C1)C(=O)C(C(=O)O)=CC2C1CC1 (some centres not stated)	2 (≈ 3.43 µM)	
COc1cc(=O)n(C)c2ccccc12		8
COc1c(N2CCNC(C)C2)c(F)cc2c(=O)c(C(=O)O)cn(C3CC3)c12 (configuration not stated) [GATIFLOXACIN]	16 (≈ 42.6 µM)	

What follows are compounds tested on Staphylococcus aureus (assay: Antimicrobial activity against methicillin-resistant Staphylococcus aureus incubated for 18 hrs by Alamar blue staining based analysis).
Format: functional

SMILES	MIC [µg/mL]
C[C@H]1COc2c(N3CCN(C)CC3)c(F)cc3c(=O)c(C(=O)O)cn1c23.C[C@H]1COc2c(N3CCN(C)CC3)c(F)cc3c(=O)c(C(=O)O)cn1c23.O [LEVOFLOXACIN]	32
COc1c(N2CC/C(=N/Oc3ccc(C)c(C)c3)C(N)C2)c(F)cc2c(=O)c(C(=O)O)cn(C3CC3)c12 (configuration not stated)	0.008 (≈ 0.0157 µM)
COc1ccc(OC)c(O/N=C2/CCN(c3c(F)cc4c(=O)c(C(=O)O)cn(C5CC5)c4c3OC)CC2N)c1 (configuration not stated)	0.008 (≈ 0.0148 µM)
COc1cc(OC)cc(O/N=C2/CCN(c3c(F)cc4c(=O)c(C(=O)O)cn(C5CC5)c4c3OC)CC2N)c1 (configuration not stated)	0.008 (≈ 0.0148 µM)
CCc1ccc(O/N=C2/CCN(c3c(F)cc4c(=O)c(C(=O)O)cn(C5CC5)c4c3OC)CC2N)cc1CC (configuration not stated)	0.008 (≈ 0.0149 µM)
CNC1CCCN(c2c(F)cc3c(=O)c(C(=O)O)cn(C4CC4)c3c2OC)C1 (configuration not stated) [BALOFLOXACIN]	4 (≈ 10.3 µM)
CO/N=C1\CN(c2nc3c(cc2F)c(=O)c(C(=O)O)cn3C2CC2)CC1CN (configuration not stated) [GEMIFLOXACIN]	4 (≈ 10.3 µM)
COc1cccc(O/N=C2/CCN(c3c(F)cc4c(=O)c(C(=O)O)cn(C5CC5)c4c3OC)CC2N)c1OC (configuration not stated)	0.008 (≈ 0.0148 µM)
COc1cc(Br)ccc1O/N=C1/CCN(c2c(F)cc3c(=O)c(C(=O)O)cn(C4CC4)c3c2OC)CC1N (configuration not stated)	0.008 (≈ 0.0136 µM)
COc1c(N2CC/C(=N/Oc3ccc(F)cc3)C(N)C2)c(F)cc2c(=O)c(C(=O)O)cn(C3CC3)c12 (configuration not stated)	0.008 (≈ 0.016 µM)
COc1cccc(O/N=C2/CCN(c3c(F)cc4c(=O)c(C(=O)O)cn(C5CC5)c4c3OC)CC2N)c1 (configuration not stated)	0.008 (≈ 0.0157 µM)
COc1c(N2CC/C(=N/Oc3ccccc3)C(N)C2)c(F)cc2c(=O)c(C(=O)O)cn(C3CC3)c12 (configuration not stated)	0.008 (≈ 0.0166 µM)
COc1ccc(O/N=C2/CCN(c3c(F)cc4c(=O)c(C(=O)O)cn(C5CC5)c4c3OC)CC2N)cc1 (configuration not stated)	0.008 (≈ 0.0157 µM)
COc1ccccc1O/N=C1/CCN(c2c(F)cc3c(=O)c(C(=O)O)cn(C4CC4)c3c2OC)CC1N (configuration not stated)	0.008 (≈ 0.0157 µM)
COc1c(N2CC/C(=N/Oc3ccc(Cl)cc3)C(N)C2)c(F)cc2c(=O)c(C(=O)O)cn(C3CC3)c12 (configuration not stated)	0.008 (≈ 0.0155 µM)

Each compound was assayed on Staphylococcus aureus (assay: Antimicrobial activity against methicillin-resistant Staphylococcus aureus incubated for 18 hrs by Agar dilution method).
Format: functional

SMILES	MIC [µg/mL]
CC(=O)c1c(N2Cc3nn(C)c(N)c3C2)c(F)cc2c(=O)c(C(=O)O)cn(C3CC3)c12	0.125 (≈ 0.294 µM)
Nc1[nH]nc2c1CN(c1c(F)cc3c(=O)c(C(=O)O)cn(C4CC4)c3c1F)C2	0.125 (≈ 0.323 µM)
Cn1nc2c(c1N)CN(c1nc3c(cc1F)c(=O)c(C(=O)O)cn3C1CC1)C2	0.125 (≈ 0.325 µM)
C[C@H]1COc2c(N3CCN(C)CC3)c(F)cc3c(=O)c(C(=O)O)cn1c23.C[C@H]1COc2c(N3CCN(C)CC3)c(F)cc3c(=O)c(C(=O)O)cn1c23.O [LEVOFLOXACIN]	0.06
COc1c(N2C[C@@H]3CCCN[C@@H]3C2)c(F)cc2c(=O)c(C(=O)O)cn(C3CC3)c12 [MOXIFLOXACIN]	0.06 (≈ 0.149 µM)
Nc1[nH]nc2c1CN(c1c(F)cc3c(=O)c(C(=O)O)cn(C4CC4)c3c1C(=O)C(F)F)C2	0.125 (≈ 0.279 µM)
Cn1nc2c(c1N)CN(c1c(F)cc3c(=O)c(C(=O)O)cn(CCF)c3c1F)C2	0.125 (≈ 0.307 µM)
CCn1cc(C(=O)O)c(=O)c2cc(F)c(N3Cc4n[nH]c(N)c4C3)c(F)c21	0.125 (≈ 0.333 µM)
Nc1[nH]nc2c1CN(c1nc3c(cc1F)c(=O)c(C(=O)O)cn3C1CC1)C2	0.125 (≈ 0.338 µM)
CC(=O)c1c(N2Cc3n[nH]c(N)c3C2)c(F)cc2c(=O)c(C(=O)O)cn(C3CC3)c12	0.125 (≈ 0.304 µM)
CO/N=C1\CN(c2nc3c(cc2F)c(=O)c(C(=O)O)cn3C2CC2)CC1CN (configuration not stated) [GEMIFLOXACIN]	0.06 (≈ 0.154 µM)
COc1c(N2CCNC(C)C2)c(F)cc2c(=O)c(C(=O)O)cn(C3CC3)c12 (configuration not stated) [GATIFLOXACIN]	0.06 (≈ 0.16 µM)
Cn1nc2c(c1N)CN(c1c(F)cc3c(=O)c(C(=O)O)cn(C4CC4)c3c1C(=O)C(F)F)C2	0.125 (≈ 0.271 µM)
Nc1[nH]nc2c1CN(c1c(F)cc3c(=O)c(C(=O)O)cn(CCF)c3c1F)C2	0.125 (≈ 0.318 µM)
Cn1nc2c(c1N)CN(c1nc3c(cc1F)c(=O)c(C(=O)O)cn3-c1ccc(F)cc1F)C2	0.125 (≈ 0.274 µM)
Cn1nc2c(c1N)CN(c1c(F)cc3c(=O)c(C(=O)O)cn(C4CC4)c3c1F)C2	0.125 (≈ 0.311 µM)
Nc1[nH]nc2c1CN(c1nc3c(cc1F)c(=O)c(C(=O)O)cn3-c1ccc(F)cc1F)C2	0.125 (≈ 0.283 µM)
CCn1cc(C(=O)O)c(=O)c2cc(F)c(N3Cc4nn(C)c(N)c4C3)c(F)c21	0.125 (≈ 0.321 µM)

What follows are compounds tested on Staphylococcus aureus (assay: Antibacterial activity against methicillin-resistant Staphylococcus aureus).
Format: functional

SMILES	MIC [µg/mL]
COc1c(-n2cc3ccccc3c2)c(F)cc2c(=O)c(C(=O)Nc3nccs3)cn(C3CC3)c12	> 201
COc1c(N2CCCC2)c(F)cc2c(=O)c(C(=O)Nc3nccs3)cn(C3CC3)c12	> 201
COc1c(N2CCCCC2)c(F)cc2c(=O)c(C(=O)Nc3nccs3)cn(C3CC3)c12	> 201
COc1c(N2CCOCC2)c(F)cc2c(=O)c(C(=O)Nc3nccs3)cn(C3CC3)c12	> 201

These compounds were tested on Staphylococcus aureus (assay: Antibacterial activity against methicillin-resistant Staphylococcus aureus isolates by two fold dilution method).
Format: functional

SMILES	MIC [µg/mL]
C[C@H]1COc2c(N3CCN(C)CC3)c(F)cc3c(=O)c(C(=O)O)cn1c23.C[C@H]1COc2c(N3CCN(C)CC3)c(F)cc3c(=O)c(C(=O)O)cn1c23.O [LEVOFLOXACIN]	1.56
O=C(O)c1c(=O)c2cc(F)c(N3CCOCC3)c3c2n2c(csc12)CN3	0.05 (≈ 0.133 µM)

These compounds were tested on Staphylococcus aureus (assay: Antibacterial activity against methicillin-resistant Staphylococcus aureus assessed as inhibition of microbial growth).
Format: functional

SMILES	MIC [µg/mL]
COc1c(N2CCNC(C)C2)c(F)cc2c(=O)c(C(=O)O)cn(C3CC3)c12 (configuration not stated) [GATIFLOXACIN]	0.06

These compounds were tested on Staphylococcus aureus (assay: Antimicrobial activity against methicillin-resistant Staphylococcus aureus isolates by agar dilution method).
Format: functional

SMILES	MIC [µg/mL]
C[C@H]1COc2c(N3CCN(C)CC3)c(F)cc3c(=O)c(C(=O)O)cn1c23.C[C@H]1COc2c(N3CCN(C)CC3)c(F)cc3c(=O)c(C(=O)O)cn1c23.O [LEVOFLOXACIN]	0.5
